Where only a bound is given, the exact number is not on record here.

Here are results for three compounds from US20160256481A1, “USE OF WATER SOLUBLE PLATINUM COMPLEX IN PREPARING DRUGS FOR PREVENTION AND TREATMENT OF CANCERS” (GUDUI BIOPHARMA TECHNOLOGY INC., priority 2011, published 2016).

The conditions of data set [1]: cited from earlier work.
In data set [2] the test system is L1210 tumor cells. Kind of data set: Antitumor efficacy in L1210 tumor-bearing CDF1 mice (increase in life span). It counts as in vivo. The settings on record: for Survived Animals on Day 42: 6 per group; for Weight Changes: from the first day to the seventh day. On the procedure: In the following test, antitumor efficacy studies were performed using 8-9 weeks old female CDF1 mice, the average weight of the animal is 20-25 grams. L1210 tumor cells (about 10^5 cells per mouse) were inoculated intraperitoneally. The water-soluble platinum complexes were used to treat the tumor-bearing animals and the efficacy was compared compared with the clinical platinum antitumor drugs. […] Drugs were administered intraperitoneally on day 1 and day 4 after tumor cell transplantation. The number of experimental animals in each group was 6.
The experimental animals were purchased from Vital River Laboratory Animal Technology Co. Ltd., Tumor cells L1210-leukemia cells were purchased from Shanghai An Yan Commercial Trade Co. Ltd.
The increase in life span (ILS) is calculated as follows:
Wherein, St=the weighted median survival time of treated animals; Su=the weighted median survival time of untreated animals

In data set [3] the test system is H460-human non-small cell lung cancer (large cell carcinoma). Kind of data set: MTS cytotoxicity assay (IC50). It counts as cell-based. The settings on record: H460, 96 h, read-out: IC50 value in human tumor cells H460. On the procedure: (§1) Containing 10% bovine fetal serum, 1 mM of sodium pyruvate, 2 mM of L-glutamine, 50 U/mL of penicillin, 50 μg/mL of streptomycin
(§2) Human tumor cells: du145-human prostate cancer; MCF-7-human breast cancer; SK0V3-human ovarian carcinoma, HT-29-human colon cancer; A549-human non-small cell lung cancer (adenocarcinoma), H460-human non-small cell lung cancer (large cell carcinoma), and animal tumor cells: L 1210-mice leukemia cells used in the following activity test experiments were all purchased from Shanghai An Yan Commercial Trade Co., Ltd.
(§3) MTS test method was used in cytotoxicity assay. The tumor cells of logarithmic phase were collected, and then the concentration of cell suspension was adjusted, 100 μL of the cell suspension was added to each well, the cells were placed at 1000-10000 cells/well (edge well filled with sterile PBS). Cells were incubated at 37° C. with 5% CO2 to make cell monolayer overspread the bottom of each well (96-well flat-bottomed microplate). 100 μL of different concentrations of the test compounds was added to each well. Each condition was measured in five replicates. The microplate was incubated at 37° C. with 5% CO2 for 96 h and checked with inverted microscope. MTS working reagent: To 2 mL of MTS (2 mg/mL, prepared by DPBS) was added 100 μL of PMS (1 mg/mL, prepared by DPBS). The cell culture medium was discarded after centrifugation, the cell culture plate was carefully washed 2-3 times with PBS. Before detecting the absorbance value (OD), to each sample containing well was added 100 μL of cell culture medium, then 20 μL of MTS working reagent was added. After incubation at 37° C. with 5% CO2 for 2 h, the OD (optical density) value was detected at 490 nm.
(§4) Control group: the conditions are the same as the above without adding the active ingredient of antitumor agents, and the OD value was detected at 490 nm on the end of the experiment.
(§5) The cell inhibiting rate of the drugs to tumor cell growth was calculated according to the following formula:
(§6) 1) Cell viability (%)=OD of treated group/OD of control group×100%
(§7) 2) The cell viabilities under the different drug concentrations were determined, and then plotted against drug concentration. The IC50 value is the corresponding concentration in the obtained curve when the cell viability was 50%.
For orientation: Formazan colour is commonly taken as a measure of viable cells.

The test system of data set [4] is SKOV3-human ovarian carcinoma. Kind of data set: MTS cytotoxicity assay (IC50). The settings on record: SKOV3, 96 h, read-out: IC50 value in human tumor cells SKOV3. It counts as cell-based. On the procedure:
as §1, §2, §3, §4, §5, §6, §7

The test system of data set [5] is A549-human non-small cell lung cancer (adenocarcinoma). Kind of data set: MTS cytotoxicity assay (IC50). The class given is cell-based. As to conditions: A549, 96 h, read-out: IC50 value in human tumor cells A549. On the procedure: as §1, §2, §3, §4, §5, §6, §7
Data set [6] deals with du145-human prostate cancer. Kind of data set: MTS cytotoxicity assay (IC50). As to conditions: DU145, 96 h, read-out: IC50 value in human tumor cells DU145. The class given is cell-based. On the procedure: as §1, §2, §3, §4, §5, §6, §7
The subject of data set [7] is MCF-7-human breast cancer. The data set can be described thus: MTS cytotoxicity assay (IC50). It counts as cell-based. As to conditions: MCF7, 96 h, read-out: IC50 value in human tumor cells MCF7. On the procedure:
as §1, §2, §3, §4, §5, §6, §7

Data set [8] relates to HT-29-human colon cancer. Kind of data set: MTS cytotoxicity assay (IC50). The class given is cell-based. As to conditions: HT29, 96 h, read-out: IC50 value in human tumor cells HT29. On the procedure:
as §1, §2, §3, §4, §5, §6, §7

The mark [9] stands for this setting: 1.25 mg/Kg i.p. day 1 and day 4.

The ILS is how much longer treated animals lived than controls. Low values mean little gain in survival, high ones much gain in survival. On to `N.N.O=C([O-])C1(C(=O)[O-])CCC1.[Pt+2]` [Carboplatin], for which the water solubility in data set [1] was 17 mg/mL. In data set [2] (24 mg/Kg i.p. day 1 and day 4), the increase in life span (ILS) stood at 8%, the “Survived Animals on Day 42” value was 0/6 and the “Weight Changes” value was “+0.6 g”. In addition, in data set [2] (40 mg/Kg i.p. day 1 and day 4), the ILS worked out at 22%, the “Survived Animals on Day 42” value was 0/6 and the “Weight Changes” value is -0.4 g. Further, in data set [2] (80 mg/Kg i.p. day 1 and day 4), the ILS turned out to be 50%, the “Survived Animals on Day 42” value is 1/6 and the “Weight Changes” value is -1.2 g.
As for `N.N.[Cl][Pt][Cl]` [Cisplatin], the ILS in data set [2] (setting [9]) worked out at 20%; in data set [2] (2.5 mg/Kg i.p. day 1 and day 4) it was 125%; in data set [2] (5.0 mg/Kg i.p. day 1 and day 4), 265%. Besides, the “Survived Animals on Day 42” value in data set [2] (setting [9]) is reported as 0/6; in data set [2] (2.5 mg/Kg i.p. day 1 and day 4), 1/6; in data set [2] (5.0 mg/Kg i.p. day 1 and day 4), 3/6.
As a reminder, the IC50 is the midpoint of a concentration-inhibition curve. As for “cis-[trans-(1R, 2R)-diaminocyclohexane] Pt (II) (1-O-D-glucoside-propane-3-chloro-3,3-dicarboxylate) [Complex 2]”, the IC50 in data set [3] was found to be 22 µM; in data set [4], 10 µM; in data set [5] it was 0.821 µM; in data set [6], 5.19 µM; in data set [7], 2 µM; in data set [8], 1.88 µM. Also, the ILS in data set [2] (50 mg/Kg i.p. day 1 and day 4) is reported as above 425%; in data set [2] (100 mg/Kg i.p. day 1 and day 4) it was above 425%; in data set [2] (200 mg/Kg i.p. day 1 and day 4), above 425%. The “Survived Animals on Day 42” value in data set [2] (50 mg/Kg i.p. day 1 and day 4) is reported as 6/6; in data set [2] (100 mg/Kg i.p. day 1 and day 4), 6/6; in data set [2] (200 mg/Kg i.p. day 1 and day 4), 6/6. Also, the “Weight Changes” value in data set [2] (50 mg/Kg i.p. day 1 and day 4) was “+1.1 g”; in data set [2] (100 mg/Kg i.p. day 1 and day 4), “+0 g”; in data set [2] (200 mg/Kg i.p. day 1 and day 4), -0.4 g.
